Experimental data reported in paper PMC9166630, “SAR Probing of KX2-391 Provided Analogues With Juxtaposed Activity Profile Against Major Oncogenic Kinases” (Frontiers in Oncology, 2022).

Tests used:
Etk/BMX = test: PamChip tyrosine kinase microarray, Etk/BMX; format: biochemical, human; conditions: 4e 0.1 µM, HL60 lysate
Protocol: (§1) The changes in kinase activities induced by treatment with 4e were monitored within the HL60 cell lines using PamGene’s (Hertogenbosch, Netherlands) PamChip® peptide microarray profiler, which quantifies the activities of 144 tyrosine kinases (YK) ([29], [30]) (Figure 7). Results are provided as a log fold change (LFC) heatmap and Mean Kinase Statistic. From the LFC it is apparent that compound 4e, at a concentration of 0.1 µM, induced sizable changes to the activity of several kinases within the cell signaling YK profile (Figure 7A).
(§2) An Upstream Kinase tool was used to generate a putative list of kinases responsible for phosphorylating the phospho-sites on the PamChip (Figure 7B) ([31]). It is an interpretation and is highly dependent on the contents of the underlying phosphorylation databases. A Kinase Score was used for ranking kinases based on their significance and specificity in terms of the set of peptides used for the corresponding kinase. Kinase Statistics indicates the overall change of the peptide set that represents the kinase. Kinase statistics value <0 indicates lower kinase activity in the compound spiked lysate and vice versa ([32], [33]). Table 5 lists the 20 most changed kinases within treated HL60 cell lysates by 0.1 μM 4e, ranked according to their Kinase Score.
(§3) The compound 4e was spiked into HL60 cell lysate at different concentrations (0.001, 0.01, 0.1, 1, 10 and 50 μM). In addition, DMSO was also spiked in HL60 lysate at low concentration (2% v/v) as control. Samples were profiled on PamGene’s Tyrosine Kinase (PTK) arrays in technical replicates, covering a total of 196 phosphorylation sites. Frozen HL60 cultured cell pellet was sent to PamGene. At PamGene, cells were lysed using a lysis buffer and proteases inhibitors cocktail. Protein concentration was measured using standard Bradford assay as per PamGene SOPs. These lysates were further used for generating the PTK activity profiles. For spiking, 4e was received as powder form and dissolved in DMSO at PamGene facility followed by storing at -20°C in small aliquots. PamGene used its in-house bioinformatics toolbox in combination with other methods to generate hypotheses of signaling pathways.

Ret = molecular target: T1, Ret (Homo sapiens, UniProt P07949); test: PamChip tyrosine kinase microarray, Ret; format: biochemical; conditions: 4e 0.1 µM, HL60 lysate
T1 construct: endogenous in cells; host or cells: HL60 lysate
Protocol: as §1, §2, §3

CSK = molecular target: T2, CSK (Homo sapiens, UniProt P41240); test: PamChip tyrosine kinase microarray, CSK; format: biochemical; conditions: 4e 0.1 µM, HL60 lysate
T2 construct: endogenous in cells; host or cells: HL60 lysate
Protocol: as §1, §2, §3

Tyk2 = test: PamChip tyrosine kinase microarray, Tyk2; format: biochemical, human; conditions: 4e 0.1 µM, HL60 lysate
Protocol: as §1, §2, §3

HL60 cells = test: Cell cycle analysis (Hoechst 33342, flow cytometry); format: cell-based, human; conditions: HL60, 5 µM, 48 h
Protocol: The effect of 4e on the distribution of cells in different phases of the cell cycle was determined by flow cytometry using Hoescht 33342 staining in HL60 cells.
HL60 cells (3.5 x 10^5) were seeded in a 6-well plate, were treated with appropriate concentrations of the test compound after attachment, and were incubated at 37°C for 48 h. The treated cells were then collected and washed twice with ice-cold PBS (1X). The washed cells were fixed using 80% ice cold ethanol and stored at -20°C overnight. Fixed cells were washed twice with PBS before staining with 10 µg of Hoechst 33342 (10 µg/mL; Thermo Fisher Scientific, Inc.) and incubated in the dark for 30 min on ice. Cells were washed again with PBS wash and a minimum total of 20,000 events were collected and analyzed using a BD FACSAria III flow cytometer (BD Biosciences, USA). Flowlogic software version 7.0/7.2.1 (Inivai Technologies Pvt Ltd, Victoria, Australia) was used to obtain the percentage distribution of cells in G1, S, and G2/M phases in the singlet-gated population. For validation purpose, we included KX2-391 as a positive reference in this assay.

purified bovine tubulin = test: Tubulin polymerization assay (turbidimetric); format: biochemical; conditions: theoretical concentration 10 µM, OD 340 nm, 60 min
Protocol: The effect of compound 4e on tubulin polymerization was investigated using the cell-free assay which assesses the assembly of purified bovine tubulin by a turbidometric method (Figure 5). Tubulin polymerization results in increased turbidity, which is measured as an increase in the optical density (OD).
Figure 5 Tubulin polymerization assay for compound 4e at 10 µM compared to paclitaxel (10 µM) and KX2-391 (10 µM) as references, while DMSO (1% v/v) was used as a vehicle control. Purified bovine tubulin and GTP were mixed in a 96-well plate. The polymerization reaction was initiated by warming the solution from 4°C to 37°C. The effect on tubulin assembly was monitored by measuring the optical density (OD) at 340 nm every 30 seconds over 60 min period. The results represent the mean for three separate experiments.
The assembly of purified bovine tubulin was monitored using the Tubulin Polymerization Assay kit, BK006 (Cytoskeleton Inc., Denver, CO, USA). The assay was carried out in accordance with the manufacturer’s instructions in the assay kit manual using the standard assay conditions. The values reported represent the average values from two independent assays. […] Therefore, tubulin assembly was monitored turbidimetrically at 340 nm at 37°C in a Spectramax 340 PC spectrophotometer (Molecular Devices, Sunnyvale, CA, USA). The absorbance was measured at 30 s intervals for 60 min.

ERK1/2 = test: Human phosphokinase array, ERK1/2; format: cell-based
Source text: The kinome tree representation (Figure 7C), which was generated by raising the Kinase Score cut-off to >1.2, confirmed that, unlike tirbanibulin and our prototype molecule KX1-136, 4e’s effects were more observable on kinases other than the Src family such as the Eph and TEC families. […] Therefore, we screened compound 4e using the Human Phospho-Kinase Array® kit from R&D systems (Minneapolis, MN, USA). In this system, 35 phosphorylated YK and serine-threonine kinase (STK) enzymes in the untreated (control) and treated (test) HL60 cell lysates were captured on nitrocellulose membrane, pre-spotted with phosphokinase-specific capture antibodies, and then visualized by detection antibody cocktails (Figure 8). The difference in the spot intensity between untreated (control) and treated cells is proportional to change in the amount of the phosphorylated protein induced by 4e.
The phosphorylation profile of 48 kinases was performed using the Proteome Profiler Human Phospho-Kinase Antibody Array Kit by R&D Systems (Minneapolis, MN, USA) according to the protocol. Briefly, the total cellular protein was extracted using the Lysis buffer and was quantified using Bio-Rad DC Protein Assay kit (Hercules, CA, USA). Nitrocellulose membrane set (A&B), pre-spotted with kinase-specific capture antibodies, were first blocked with Array Buffer-1 at RT for 30 min on a rocking platform shaker. Approximately 600 µg of protein concentrate was diluted in the buffer provided and was added onto the membrane set, and the membranes were incubated overnight at 4°C in an 8-well plate. Subsequently, membranes were washed with Wash Buffer and incubated with appropriate Detection Antibody cocktails for 2 h at RT. Streptavadin-HRP (1:2000) was added onto membranes and incubated for 30 min at RT. Membranes were washed, and Chemiluminescent Detection Reagents 1&2 were applied in equal volumes for detection. The signals were detected on C-DiGit®Blot Scanner (LI-COR, Odyssey Imaging Systems, Lincoln, Nebraska, USA) using Image Studio 5.0 software.

T2 sequence (P41240 whole entry): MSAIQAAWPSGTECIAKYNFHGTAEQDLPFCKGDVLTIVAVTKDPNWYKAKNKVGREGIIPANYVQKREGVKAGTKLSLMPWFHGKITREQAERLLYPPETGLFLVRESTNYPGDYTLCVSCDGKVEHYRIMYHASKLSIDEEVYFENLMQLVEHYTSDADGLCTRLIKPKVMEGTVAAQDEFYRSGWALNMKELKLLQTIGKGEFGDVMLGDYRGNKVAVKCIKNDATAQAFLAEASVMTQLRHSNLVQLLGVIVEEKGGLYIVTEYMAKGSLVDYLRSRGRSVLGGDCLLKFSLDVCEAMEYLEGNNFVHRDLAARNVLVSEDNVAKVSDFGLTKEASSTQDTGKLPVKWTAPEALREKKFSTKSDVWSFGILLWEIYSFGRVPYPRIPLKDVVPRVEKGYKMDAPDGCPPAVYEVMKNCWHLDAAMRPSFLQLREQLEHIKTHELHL
T1 sequence (P07949 29-1114): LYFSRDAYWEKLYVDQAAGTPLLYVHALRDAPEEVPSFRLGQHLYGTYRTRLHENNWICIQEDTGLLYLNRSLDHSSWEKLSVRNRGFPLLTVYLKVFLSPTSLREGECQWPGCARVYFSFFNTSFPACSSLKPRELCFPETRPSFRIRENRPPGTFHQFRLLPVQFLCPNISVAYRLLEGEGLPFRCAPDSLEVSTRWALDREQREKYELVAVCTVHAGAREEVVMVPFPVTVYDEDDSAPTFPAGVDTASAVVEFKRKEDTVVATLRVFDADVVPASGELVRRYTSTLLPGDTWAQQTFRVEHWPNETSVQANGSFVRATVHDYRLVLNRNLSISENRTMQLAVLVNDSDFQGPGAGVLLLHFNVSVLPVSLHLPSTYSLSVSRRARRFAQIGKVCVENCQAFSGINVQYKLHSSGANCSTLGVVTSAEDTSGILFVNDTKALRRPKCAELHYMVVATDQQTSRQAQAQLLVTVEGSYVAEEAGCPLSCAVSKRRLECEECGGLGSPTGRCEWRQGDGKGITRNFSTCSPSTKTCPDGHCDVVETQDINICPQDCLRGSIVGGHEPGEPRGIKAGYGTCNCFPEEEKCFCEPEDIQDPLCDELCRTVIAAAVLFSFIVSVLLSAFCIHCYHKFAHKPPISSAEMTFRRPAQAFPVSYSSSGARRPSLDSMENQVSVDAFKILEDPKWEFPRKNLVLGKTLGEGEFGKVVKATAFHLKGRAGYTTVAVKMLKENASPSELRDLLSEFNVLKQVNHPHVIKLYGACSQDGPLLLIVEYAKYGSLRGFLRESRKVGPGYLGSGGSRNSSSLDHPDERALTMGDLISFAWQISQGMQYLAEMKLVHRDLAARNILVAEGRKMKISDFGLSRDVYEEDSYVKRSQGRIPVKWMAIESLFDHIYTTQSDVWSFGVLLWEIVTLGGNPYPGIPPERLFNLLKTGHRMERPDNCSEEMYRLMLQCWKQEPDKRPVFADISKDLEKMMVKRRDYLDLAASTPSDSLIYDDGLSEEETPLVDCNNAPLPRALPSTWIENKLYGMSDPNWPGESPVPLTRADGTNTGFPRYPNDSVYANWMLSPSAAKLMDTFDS

O=C(Cc1ccc(NC(=O)c2cccc(Cl)c2)cc1)NCc1ccccc1 [Compound 4e, N-(4-(2-(benzylamino)-2-oxoethyl)phenyl)-3-chlorobenzamide]
Mean Final Score (Etk/BMX): 1.7640
Mean Kinase Statistic (Etk/BMX): -0.5143
Mean Significance Score (Etk/BMX): 1.3079
Mean Specificity Score (Etk/BMX): 0.4561
Mean Final Score (Ret): 2.3893
Mean Kinase Statistic (Ret): -0.7112
Mean Significance Score (Ret): 1.0953
Mean Specificity Score (Ret): 1.2940
Mean Final Score (CSK): 1.9356
Mean Kinase Statistic (CSK): -0.5346
Mean Significance Score (CSK): 1.2107
Mean Specificity Score (CSK): 0.7249
Mean Final Score (Tyk2): 1.7035
Mean Kinase Statistic (Tyk2): -0.6710
Mean Significance Score (Tyk2): 1.1411
Mean Specificity Score (Tyk2): 0.5624
Apoptosis (cell cycle profile) (HL60 cells): 14.66%
G2M population (HL60 cells): 24.51%
effect on tubulin polymerization (purified bovine tubulin): did not affect the tubulin polymerization
reduction of ERK1/2 activity (ERK1/2; HL60, kinase profiling): > 99%
phosphokinase signal after 4e exposure, ERK1/2 (ERK1/2; HL60 cell lysate, treated): 1.05
% Change, ERK1/2 (ERK1/2; treated vs untreated HL60): -99.41%
Change in Signal, ERK1/2 (ERK1/2; treated vs untreated HL60): -177.83
